Source: patent US20090143279A1 (priority 2007, published 2009)
Like-named read-outs stand apart in the source and are kept apart here.

How the values were obtained:
[1] = test system: nuOXPHOS transcripts; type: cell-based, mouse; settings: Conc 20 μM; for nucOX (composite Z-score): normalized score vs mock-treated (DMSO) wells
[2] = test system: mtOXPHOS transcripts; type: cell-based, mouse; settings: Conc 20 μM; for mitoOX (composite Z-score): normalized score vs mock-treated (DMSO) wells
[3] = test system: cytochrome c; type: cell-based, mouse; settings: Conc 20 μM; for cyt c (composite Z-score): normalized score vs mock-treated (DMSO) wells
cytochrome c, sequence (P62897 whole entry): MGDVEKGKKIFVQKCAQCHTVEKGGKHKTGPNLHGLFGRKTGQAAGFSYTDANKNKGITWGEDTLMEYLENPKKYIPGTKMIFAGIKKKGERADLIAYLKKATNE

[4] = test system: C2C12 myotubes; settings: for Viability (composite Z-score): normalized score vs mock-treated (DMSO) wells
[5] = test system: cellular dehydrogenase activity; settings: for MTT (composite Z-score): normalized score vs mock-treated (DMSO) wells
[6] = test system: mitochondrial membrane potential; type: cell-based, mouse; settings: for ΔΨm (composite Z-score): normalized score vs mock-treated (DMSO) wells
[7] = test system: OXPHOS gene expression; type: cell-based, mouse; settings: Conc 20 μM; for GE-HTS (composite Z-score): normalized score vs mock-treated (DMSO) wells
[8] = test system: reactive oxygen species; type: cell-based, mouse; settings: for ROS (composite Z-score): normalized score vs mock-treated (DMSO) wells
[9] = normalized composite Z-score vs mock-treated (DMSO) wells
[10] = normalized composite Z-score vs mock-treated (DMSO) wells, Conc 20 μM
[11] = composite Z-score vs mock-treated (DMSO) wells
[12] = composite Z-score vs mock-treated (DMSO) wells, Conc 20 μM
[13] = Table 4, C2C12 myotubes, 48 h, composite Z-score
[14] = Table 4, C2C12 myotubes, 48 h, JC-1, composite Z-score
[15] = composite Z-score vs DMSO wells
[16] = composite Z-score vs DMSO wells, Conc 20 μM
[17] = composite Z-score vs DMSO, Conc 20 μM

CC1(C)C2CC(=O)[C@]3(C)C(CC[C@@]4(C)[C@H](c5ccoc5)OC(=O)[C@H]5O[C@]543)[C@@]2(C)C(=O)C[C@H]1O (stereo partly drawn)
nucOX [1, 9]: −0.866 | mitoOX [2, 9]: −0.875 | cyt c [3, 9]: 0.113 | Viability [4, 10]: −0.023 | MTT [5, 10]: −1.103 | ΔΨm [6, 10]: −0.335 | GE-HTS [7, 9]: −0.911 | ROS [8, 10]: 0.122

COc1ccc2c(c1)C1(C)CCC(=O)CC1CC2 (stereo not drawn)
nucOX [1, 9]: −0.582 | mitoOX [2, 9]: −0.652 | cyt c [3, 9]: 0.380 | Viability [4, 10]: −0.071 | MTT [5, 10]: −2.008 | ΔΨm [6, 10]: −0.173 | GE-HTS [7, 9]: −0.632 | ROS [8, 10]: 1.860

1,2alpha-epoxydeacetoxydihydrogedunin
nucOX [1, 9]: −1.080 | mitoOX [2, 9]: −0.468 | cyt c [3, 9]: −0.224 | Viability [4, 10]: 0.074 | MTT [5, 10]: −2.000 | ΔΨm [6, 10]: 0.210 | GE-HTS [7, 9]: −0.921 | ROS [8, 10]: 3.350

2-hydroxy-5 (6)epoxy-tetrahydrocaryophyllene
nucOX [1, 9]: −0.447 | mitoOX [2, 9]: −0.043 | cyt c [3, 9]: 0.236 | Viability [4, 10]: −0.772 | MTT [5, 10]: −0.836 | ΔΨm [6, 10]: −0.739 | GE-HTS [7, 9]: −0.347 | ROS [8, 10]: 0.074

3,7-epoxycaryophyllan-6-one
nucOX [1, 9]: −0.824 | mitoOX [2, 9]: −0.595 | cyt c [3, 9]: 0.131 | Viability [4, 10]: 0.433 | MTT [5, 10]: −0.698 | ΔΨm [6, 10]: −1.003 | GE-HTS [7, 9]: −0.812 | ROS [8, 10]: 0.603

3-deoxo-3beta-acetoxydeoxydihydrogedunin
nucOX [1, 11]: −0.791 | mitoOX [2, 11]: −0.559 | cyt c [3, 11]: 0.398 | Viability [4, 12]: 1.066 | MTT [5, 12]: −1.633 | ΔΨm [6, 12]: 1.215 | GE-HTS [7, 11]: −0.742 | ROS [8, 12]: 1.249

3-deoxo-3beta-hydroxymexicanolide 16-enol ether
nucOX [1, 11]: −0.247 | mitoOX [2, 11]: −0.133 | cyt c [3, 11]: −0.040 | Viability [4, 12]: 0.290 | MTT [5, 12]: −1.922 | ΔΨm [6, 12]: −0.059 | GE-HTS [7, 11]: −0.203 | ROS [8, 12]: 1.279

3-nor-3-oxopanasinsan-6-ol
nucOX [1, 9]: −0.831 | mitoOX [2, 9]: 0.004 | cyt c [3, 9]: 0.864 | Viability [4, 10]: 0.209 | MTT [5, 10]: −0.492 | ΔΨm [6, 10]: −0.006 | GE-HTS [7, 9]: −0.605 | ROS [8, 10]: 0.172

3alpha-hydroxy-3-deoxyangolensic acid methyl ester
nucOX [1, 11]: −0.474 | mitoOX [2, 11]: −0.377 | cyt c [3, 11]: −0.141 | Viability [4, 12]: 0.949 | MTT [5, 12]: −1.268 | ΔΨm [6, 12]: −0.043 | GE-HTS [7, 11]: −0.456 | ROS [8, 12]: 0.799

3beta-chloroandrostanone
nucOX [1, 11]: −1.192 | mitoOX [2, 11]: −0.907 | cyt c [3, 11]: 1.021 | Viability [4, 12]: −0.424 | MTT [5, 12]: −1.203 | ΔΨm [6, 12]: −0.860 | GE-HTS [7, 11]: −1.190 | ROS [8, 12]: −0.077

3beta-hydroxydeoxydesacetoxy-7-oxogedunin
nucOX (composite Z-score) [1]: −1.027 | mitoOX (composite Z-score) [2]: −0.319 | cyt c (composite Z-score) [3]: 0.306 | Viability (composite Z-score) ([4]; Conc 20 μM): 0.688 | MTT (composite Z-score) ([5]; Conc 20 μM): −0.615 | ΔΨm (composite Z-score) ([6]; Conc 20 μM): −0.064 | GE-HTS (composite Z-score) [7]: −0.864 | ROS (composite Z-score) ([8]; Conc 20 μM): 0.662

7-deshydroxypyrogallin-4-carboxylic acid
nucOX [1, 11]: −1.039 | mitoOX [2, 11]: −0.770 | cyt c [3, 11]: 0.419 | Viability [4, 12]: 0.121 | MTT [5, 12]: −0.460 | ΔΨm [6, 12]: −1.109 | GE-HTS [7, 11]: −0.997 | ROS [8, 12]: −0.210

12a-hydroxy-5-deoxydehydromunduserone [reference compound]
nucOX [1, 9]: 0.193 | mitoOX [2, 9]: 0.239 | cyt c [3, 9]: −0.179 | Viability [4, 13]: −0.940 | Viability [4, 10]: −0.940 | MTT [5, 13]: −1.976 | MTT [5, 10]: −1.976 | ΔΨm [6, 14]: −0.179 | ΔΨm [6, 10]: −0.179 | GE-HTS [7, 9]: 0.211 | ROS [8, 13]: 0.823 | ROS [8, 10]: 0.823

C#CC1(O)CC[C@H]2[C@@H]3CCC4=CC(=O)CC[C@@H]4[C@H]3CC[C@@]21CC (mixture of isomers) [norgestrel]
nucOX [1, 15]: −0.183 | mitoOX [2, 15]: −0.187 | cyt c [3, 15]: −0.027 | Viability [4, 16]: −0.966 | MTT [5, 16]: −0.761 | ΔΨm [6, 16]: −0.965 | GE-HTS [7, 15]: −0.225 | ROS [8, 16]: 0.831

C=CC(C)(O)CCC=C(C)C (single isomer, unassigned; (+)) [(+)-linalool]
nucOX (composite Z-score) [1]: 0.131 | mitoOX (composite Z-score) [2]: −0.342 | cyt c (composite Z-score) [3]: 0.690 | Viability (composite Z-score) ([4]; Conc 20 μM): −0.653 | MTT (composite Z-score) ([5]; Conc 20 μM): −1.338 | ΔΨm (composite Z-score) ([6]; Conc 20 μM): −0.810 | GE-HTS (composite Z-score) [7]: −0.007 | ROS (composite Z-score) ([8]; Conc 20 μM): 0.481

O=C1c2ccc(O)cc2OC(c2cc(O)c(O)c(O)c2)C1O (stereo in doubt) [dihydrorobinetin, reference compound]
nucOX (composite Z-score) [1]: −1.089 | mitoOX (composite Z-score) [2]: −1.124 | cyt c (composite Z-score) [3]: 0.082 | Viability (composite Z-score) ([4]; Conc 20 μM): −1.070 | Viability [4, 13]: −1.070 | MTT (composite Z-score) ([5]; Conc 20 μM): −1.259 | MTT [5, 13]: −1.259 | ΔΨm (composite Z-score) ([6]; Conc 20 μM): −3.396 | ΔΨm [6, 14]: −3.396 | GE-HTS (composite Z-score) [7]: −1.192 | ROS (composite Z-score) ([8]; Conc 20 μM): −0.393 | ROS [8, 13]: −0.393

C[C@H](C[C@@H](O)[C@@H]1OC1(C)C)[C@@H]1CC[C@]2(C)C3=CC[C@H]4C(C)(C)C(=O)CC[C@]4(C)[C@H]3CC[C@@]12C (stereo in doubt) [niloticin]
nucOX [1, 11]: 0.648 | mitoOX [2, 11]: 0.151 | cyt c [3, 11]: 0.136 | Viability [4, 12]: 1.304 | MTT [5, 12]: −0.481 | ΔΨm [6, 12]: 0.461 | GE-HTS [7, 11]: 0.543 | ROS [8, 12]: 0.817

CC[C@@H](C)C(=O)O[C@H]1[C@H](O)[C@H]2[C@@H](CN3C[C@@H](C)CC[C@H]3[C@@]2(C)O)[C@@H]2C[C@]34O[C@]5(O)[C@@H](OC(=O)[C@](C)(O)[C@@H](C)O)CC[C@@]3(C)[C@@H]5[C@@H](OC(C)=O)[C@@H](OC(C)=O)[C@H]4[C@@]21O (stereo in doubt) [protoveratrine B]
nucOX ([1]; composite Z-score vs DMSO): 0.058 | mitoOX ([2]; composite Z-score vs DMSO): −0.096 | cyt c ([3]; composite Z-score vs DMSO): −1.085 | Viability [4, 17]: 0.708 | MTT [5, 17]: 0.904 | ΔΨm [6, 17]: 0.942 | GE-HTS ([7]; composite Z-score vs DMSO): 0.018 | ROS [8, 17]: 0.244

CC(=O)O[C@@H]1CC2C(C)(C)C(=O)[C@@H]3O[C@@H]3[C@]2(C)C2CC[C@]3(C)C(=CC(=O)O[C@H]3c3ccoc3)[C@@]21C (stereo partly drawn) [1 (2)alpha-epoxydeoxydihydrogedunin]
nucOX [1, 9]: −0.831 | mitoOX [2, 9]: −0.539 | cyt c [3, 9]: 0.022 | Viability [4, 10]: 0.015 | MTT [5, 10]: −1.048 | ΔΨm [6, 10]: 0.074 | GE-HTS [7, 9]: −0.801 | ROS [8, 10]: 2.784

CC1(C)C2CC(=O)[C@]3(C)C(CC[C@@]4(C)[C@H](c5ccoc5)OC(=O)C5OC543)[C@@]2(C)[C@@H](O)C[C@H]1O (stereo partly drawn) [1,3-dideacetyl-7-deacetoxy-7-oxokhivorin]
nucOX [1, 9]: −0.716 | mitoOX [2, 9]: −0.497 | cyt c [3, 9]: 0.226 | Viability [4, 10]: 0.190 | MTT [5, 10]: −1.399 | ΔΨm [6, 10]: 1.329 | GE-HTS [7, 9]: −0.665 | ROS [8, 10]: 1.267
